Measured values published in ChEMBL document CHEMBL6134849, “A Water-Soluble Aggregation-Induced Emission Photosensitizer with Intrinsic Antibacterial Activity as an Antiplanktonic and Antibiofilm Therapeutic Agent” (J Med Chem, 2025).
The source made the active and inactive calls. The calls are words filed in the database; no cut-off is given here.

How the values were obtained:
Lipoteichoic acid = assay: Displacement of BODIPY-TR Cadaverine from Staphylococcus aureus lipoteichoic acid (LTA) assessed as increase in fluorescence intensity at 10 uM incubated for 30 mins by fluorescence based plate reader analysis
Lipopolysaccharide (LPS) = assay: Displacement of BODIPY-TR Cadaverine from Pseudomonas aeruginosa lipopolysaccharide (LPS) assessed as increase in fluorescence intensity at 10 uM incubated for 30 mins by fluorescence based plate reader analysis
[1] = Induction of type-I ROS generation in PBS assessed as increase in nonspecific ROS by measuring increase in DHR123 fluorescence intensity at 10 uM irradiated with 660 nm 60 mW/cm2 light for 15 mins by DHR123 probe based plate reader analysis; format: functional
[2] = Induction of type-II ROS generation in PBS assessed as increase in nonspecific ROS by measuring increase in DHR123 fluorescence intensity at 10 uM irradiated with 660 nm 60 mW/cm2 light for 15 mins by DHR123 probe based plate reader analysis; format: functional
[3] = Induction of type-I ROS generation in PBS assessed as increase in hydroxyl radical by measuring increase in HPF fluorescence intensity at 10 uM irradiated with 660 nm 60 mW/cm2 light for 15 mins by HPF probe based plate reader analysis; format: functional
[4] = Induction of […] ROS generation in PBS assessed as increase in hydroxyl radical by measuring increase in HPF fluorescence intensity at 10 uM irradiated with 660 nm 60 mW/cm2 light for 15 mins by HPF probe based plate reader analysis; format: functional
[5] = Induction of type-I ROS generation in PBS assessed as increase in singlet oxygen by measuring increase in SOSG fluorescence intensity at 10 uM irradiated with 660 nm 60 mW/cm2 light for 15 mins by SOSG probe based plate reader analysis; format: functional
[6] = Induction of type-II ROS generation in PBS assessed as increase in singlet oxygen by measuring increase in SOSG fluorescence intensity at 10 uM irradiated with 660 nm 60 mW/cm2 light for 15 mins by SOSG probe based plate reader analysis; format: functional

- Activity (Lipoteichoic acid): Active
- Activity (Lipopolysaccharide (LPS)): Active
SMILES: CC[n+]1c(/C=C/c2ccc(-c3ccc(N(c4ccc(OCCC[N+](C)(C)C)cc4)c4ccc(OCCC[N+](C)(C)C)cc4)cc3)s2)sc2ccccc21
- Activity [1]: Active
- Activity [2]: Active
- Activity [3]: Active
- Activity [4]: Active
- Activity [5]: Active
- Activity [6]: Active
